Experiments:
Assay type in all cases: in vivo
Puccinia recondita [1] = test: Activity against Puccinia recondita on wheat (seed treatment); details: 250 g a.i./100 kg seeds, inoculated 14 days after sowing, 7 days incubation, control 90
Method: Activity Against Puccinia recondita on Wheat (Seed Treatment) 24 mg of the active compounds listed in table 2 were in each case dissolved in 1 ml of acetone to give a stock solution. The stock solution was diluted with acetone to give the test solution. Aliquots of 4.8 g of wheat seeds were placed in glass vials, where they were treated in an air stream with 1 ml of the test solution containing the active compound. In each case, 10 grains were sown in pots of 8 cm diameter. Untreated grains served as control. […] After 7 days of incubation, the extent of infection was determined visually in %. The concentration is given in g of active compound (g a.i.) per 100 kg of seeds.

Erysiphe graminis = test: Activity against Erysiphe graminis on wheat (solution pipetted to seedlings in vermiculite); details: inoculated 7 days after treatment, 7 days incubation, control 80
Method: (§1) Activity Against Erysiphe graminis on Wheat The active compounds were formulated as a stock solution in acetone at a concentration of 10 000 ppm. The stock solution was diluted with water to the stated active compound concentration. 1 ml of the respective solution was pipetted to wheat seedlings grown in vermiculite (10 to 12 seedlings per pot). 7 days after the treatment the wheat plants were inoculated with a spore suspension of Erysiphe graminis. After 7 days of incubation, the extent of infection was determined visually in %. The concentration is given in g of active compound (g a.i.) per 100 kg of seeds.

Puccinia recondita [2] = test: Activity against Puccinia recondita on wheat (solution pipetted to seedlings in vermiculite); details: inoculated 7 days after treatment, 7 days incubation, control 80
Method: as §1, with “Puccinia recondita” for “Erysiphe graminis”, “Puccinia recondita.” for “Erysiphe graminis.”

Septoria tritici [3] = test: Activity against Septoria tritici on wheat (seedlings treated, detached leaf portions on agar inoculated); details: wheat seedlings in vermiculite, leaf portions on agar inoculated 7 days after treatment, 18° C., 18 days incubation, control 100
Method: Activity Against Septoria tritici on Wheat The active compound Ia.1 was formulated as a stock solution in acetone at a concentration of 10 000 ppm. The stock solution was diluted with water to the stated active compound concentration. 1 ml of the respective solution was pipetted to wheat seedlings grown in vermiculite (10 to 12 seedlings per pot). 7 days after the treatment leaf portions of 5 cm length were placed in petri dishes filled with aqueous agar. The leaf portions were then inoculated with a spore suspension of Septoria tritici. The closed Petri dishes were incubated in a climatized test cabinet at 18° C. and 12 h light exposure per day. After 18 days of incubation, the extent of infection was determined visually in %. The concentration is given in g of active compound (g a.i.) per 100 kg of seeds.

Phakopsora pachyrhizi [4] = test: Activity against Phakopsora pachyrhizi on soybean (solution pipetted to seedlings in vermiculite); details: 250 g a.i./100 kg, inoculated 7 days after treatment, 14 days incubation, control 88
Method: Activity Against Phakopsora pachyrhizi on Soybean
The active compounds were formulated as a stock solution in dimethylsulfoxide at a concentration of 10 000 ppm. The stock solution was diluted with water to the stated active compound concentration. 1 ml of the respective solution was pipetted to soybean seedlings grown in vermiculite (1 seedling per pot). 7 days after the treatment the soybean plants were inoculated with a spore suspension of Phakopsora pachyrhizi. After 14 days of incubation, the extent of infection was determined visually in %. The concentration is given in g of active compound (g a.i.) per 100 kg of seeds.

Septoria tritici [5] = test: Activity against Septoria tritici on wheat (seed treatment); details: inoculated 14 days after sowing, 24 days incubation, control 85
Method: Activity Against Septoria tritici on Wheat (Seed Treatment) 9.6 mg of the active compound Ia.90 was dissolved in 1 ml of acetone to give a stock solution. The stock solution was diluted with acetone to give the test solution. Aliquots of 4.8 g of wheat seeds were placed in glass vials, where they were treated in an air stream with 0.5 ml of the test solution containing the active compound. In each case, 10 grains were sown in pots of 8 cm diameter. Untreated grains served as control. 14 days after sowing, the wheat plants were inoculated with a spore suspension of Septoria tritici. After 24 days of incubation, the extent of infection was determined visually in %. The concentration is given in g of active compound (g a.i.) per 100 kg of seeds.

Septoria tritici [6] = test: Activity against Septoria tritici on wheat (solution pipetted to seedlings in vermiculite); details: inoculated 7 days after treatment, 18 days incubation, control 60
Method: as §1, with “Against Septoria tritici” for “Against Erysiphe graminis”, “active compound Ia.1 was” for “active compounds were”, “in dimethyl sulfoxide” for “in acetone”, “of Septoria tritici.” for “of Erysiphe graminis.”, “After 18” for “After 7”

Phakopsora pachyrhizi [7] = test: Activity against Phakopsora pachyrhizi on soybean (seed treatment); details: inoculated 14 days after sowing, 10 days incubation, control 87
Method: Activity Against Phakopsora pachyrhizi on soybean (Seed Treatment)
16 mg of the active compounds listed in table 3 were in each case dissolved in 1 ml of acetone to give a stock solution. The stock solution was diluted with acetone to give the test solution. Aliquots of 1.5 g of soybean seeds were placed in glass vials, where they were treated in an air stream with 0.6 ml of the test solution containing the active compound. In each case, 8 grains were sown in pots of 8 cm diameter. Untreated grains served as control. 14 days after sowing, the soybean plants were inoculated with a spore suspension of Phakopsora pachyrhizi. After 10 days of incubation, the extent of infection was determined visually in %. The concentration is given in g of active compound (g a.i.) per 100 kg of seeds.

Row | Compound | Infected leaf area (Erysiphe graminis; 125 g a.i./100 kg) [%] | Infected leaf area (Erysiphe graminis; 250 g a.i./100 kg) [%] | Infected leaf area (Puccinia recondita [2]; 125 g a.i./100 kg) [%] | Infected leaf area (Puccinia recondita [2]; 250 g a.i./100 kg) [%] | Infected leaf area (Septoria tritici [3]; 125 g a.i./100 kg) [%] | Infected leaf area (Septoria tritici [3]; 250 g a.i./100 kg) [%] | other results
1 | Cn1cc(C(=O)Nc2ccccc2-c2cc(Cl)ccc2Cl)c(C(F)(F)F)n1 [Ia.255] | 0 | 0 | 0 | 0 | 3 | 3 | Infected leaf area (Puccinia recondita [1]): 38%
2 | Cn1cc(C(=O)Nc2ccccc2-c2ccc(Cl)cc2F)c(C(F)(F)F)n1 [Ia.57] | – | – | 0 | 0 | – | – | –
3 | Cn1cc(C(=O)Nc2ccccc2-c2cc(F)cc(Cl)c2)c(C(F)(F)F)n1 [Ia.251] | – | – | 0 | 0 | – | – | –
4 | Cn1cc(C(=O)Nc2ccccc2-c2cc(F)cc(F)c2)c(C(F)F)n1 [Ia.244] | – | – | 0 | 0 | – | – | –
5 | Cn1cc(C(=O)Nc2ccccc2-c2ccccc2Cl)c(C(F)F)n1 [Ia.233] | – | – | 2 | 0 | 7 | 0 | –
6 | Cn1cc(C(=O)Nc2ccccc2-c2ccc(F)c(F)c2)c(C(F)F)n1 [Ia.45] | – | – | 0 | 0 | – | – | –
7 | Cn1cc(C(=O)Nc2ccccc2-c2ccc(SC(F)(F)F)cc2)c(C(F)F)n1 [Ia.313] | 0 | 0 | 0 | 0 | 0 | 0 | –
8 | Cn1cc(C(=O)Nc2c(F)cccc2-c2ccc(F)c(Cl)c2)c(C(F)F)n1 [Ia.249] | – | – | 0 | 0 | – | – | –
9 | Cn1cc(C(=O)Nc2ccc(F)cc2-c2ccc(Cl)c(Cl)c2)c(C(F)F)n1 [Ia.110] | 0 | 0 | – | – | 3 | 7 | Infected leaf area (Phakopsora pachyrhizi [4]): 17%
10 | Cc1nn(C)c(Cl)c1C(=O)Nc1ccccc1-c1ccc(C(F)(F)F)cc1 [Ia.219] | – | – | 8 | 6 | – | – | –
11 | Cn1cc(C(=O)Nc2ccccc2-c2cc(F)cc(F)c2)c(C(F)(F)F)n1 [Ia.245] | 0 | 0 | 0 | 0 | 0 | 0 | Infected leaf area (Puccinia recondita [1]): 19%; Infected leaf area (Phakopsora pachyrhizi [4]): 0%
12 | Cn1cc(C(=O)Nc2ccccc2-c2cc(F)c(F)c(F)c2)c(C(F)(F)F)n1 [Ia.85] | 0 | 0 | 0 | 0 | 0 | 0 | Infected leaf area (Puccinia recondita [1]): 11%
13 | O=C(Nc1ccccc1-c1ccc(OC(F)(F)C(F)F)cc1)c1cccnc1Cl [Id.56] | – | – | 0 | 0 | – | – | –
14 | Cn1cc(C(=O)Nc2ccccc2-c2ccc(SC(F)(F)F)cc2)c(C(F)(F)F)n1 [Ia.173] | 0 | 0 | 0 | 0 | – | – | –
15 | Cn1cc(C(=O)Nc2ccccc2-c2cc(F)c(F)c(F)c2)c(C(F)F)n1 [Ia.90] | 0 | 0 | 2 | 1 | 7 | 3 | Infected leaf area (Septoria tritici [5]; 25 g a.i./100 kg seeds): 1%; Infected leaf area (Septoria tritici [5]; 50 g a.i./100 kg seeds): 0%; Infected leaf area (Septoria tritici [5]; 100 g a.i./100 kg seeds): 0%; Infected leaf area (Puccinia recondita [1]): 0%; Infected leaf area (Septoria tritici [6]; 125 g a.i./100 kg): 0%; Infected leaf area (Septoria tritici [6]; 250 g a.i./100 kg): 0%; Infected leaf area (Phakopsora pachyrhizi [4]): 0%; Infected leaf area (Phakopsora pachyrhizi [7]; 125 g a.i./100 kg seeds): 1%; Infected leaf area (Phakopsora pachyrhizi [7]; 250 g a.i./100 kg seeds): 2%
16 | Cn1cc(C(=O)Nc2ccccc2-c2cc(F)cc(Cl)c2)c(C(F)F)n1 [Ia.250] | – | – | 0 | 0 | – | – | –
17 | O=C(Nc1ccccc1-c1ccc(OC(F)(F)F)cc1)c1cccnc1Cl [Id.55] | – | – | 0 | 0 | – | – | –
18 | Cn1cc(C(=O)Nc2ccccc2-c2cccc(C(F)(F)F)c2)c(C(F)(F)F)n1 [Ia.64] | – | – | 0 | 0 | – | – | –
19 | Cn1cc(C(=O)Nc2ccccc2-c2cccc(Cl)c2)c(CF)n1 [Ia.230] | – | – | 0 | 0 | – | – | –
20 | Cc1cc(-c2ccccc2NC(=O)c2cn(C)nc2C(F)(F)F)c(F)cc1Cl [Ia.84] | 0 | 0 | 0 | 0 | 3 | 3 | –
21 | O=C(Nc1ccccc1-c1ccc(SC(F)(F)F)cc1)c1cccnc1Cl [Id.58] | – | – | 13 | 13 | – | – | –
22 | Cn1cc(C(=O)Nc2ccccc2-c2cccc(Cl)c2)c(C(F)F)n1 [Ia.231] | – | – | 0 | 0 | – | – | –
23 | Cn1cc(C(=O)Nc2ccccc2-c2cc(Cl)cc(Cl)c2)c(C(F)F)n1 [Ia.43] | 2 | 0 | 0 | 0 | – | – | –
24 | Cn1cc(C(=O)Nc2ccccc2-c2cc(F)c(F)c(F)c2)c(C(F)Cl)n1 (stereo not shown) [Ia.211] | 0 | 0 | 0 | 0 | – | – | Infected leaf area (Phakopsora pachyrhizi [4]): 3%
25 | Cn1cc(C(=O)Nc2ccccc2-c2ccc(F)c(Cl)c2)c(C(F)F)n1 [Ia.44] | – | – | 0 | 0 | – | – | –
26 | O=C(Nc1ccccc1-c1ccc(Cl)cc1)c1cccnc1Cl [Id.1] | – | – | – | – | – | – | Infected leaf area (Phakopsora pachyrhizi [4]): 40%
